Experimental findings from article PMC12238837, “DCAF16‐Based Covalent Molecular Glues for Targeted Protein Degradation of Histone Deacetylases” (Archiv Der Pharmazie, 2025) are described below.

Assay [1] has as its target HDAC2 (Homo sapiens, UniProt Q92769). The assay is described as follows: HDAC enzyme inhibition assay (ZMAL substrate), HDAC2. Format: biochemical. Also on record: purchased BPS Bioscience 50052. Particulars: n = 2, mean ± SD. As for the experimental part: (§1) The total assay volume of 50 μL (HDAC2/3/6 max. 1% DMSO; HDAC1 max. 5% DMSO) was incubated at 37°C for 90 min. Subsequently, 50 μL of trypsin (0.4 mg/mL) in trypsin buffer (50 mM Tris−HCl, pH 8.0, 100 mM NaCl) was added, followed by an additional 30 min of incubation at 37°C. Fluorescence (excitation λ = 355 nm, emission λ = 460 nm) was measured using a FLUOstar OPTIMA microplate reader. The IC50 was determined by plotting dose–response curves and performing nonlinear regression using GraphPad Prism.
(§2) The total assay volume of 50 μL (HDAC2/3/6 max. 1% DMSO; HDAC1 max. 5% DMSO) was incubated at 37°C for 90 min. Subsequently, 50 μL of trypsin (0.4 mg/mL) in trypsin buffer (50 mM Tris−HCl, pH 8.0, 100 mM NaCl) was added, followed by additional 30 min of incubation at 37°C. Fluorescence (excitation λ = 355 nm, emission λ = 460 nm) was measured using a FLUOstar OPTIMA microplate reader. The IC50 was determined by plotting dose response curves and performing nonlinear regression using GraphPad Prism.^[3-6]

For assay [2], the target named is T1, Human recombinant HDAC3/NcoR2 (Homo sapiens, UniProt O15379).
T1 construct: purchased BPS Bioscience 50003
T1 sequence (O15379 whole entry): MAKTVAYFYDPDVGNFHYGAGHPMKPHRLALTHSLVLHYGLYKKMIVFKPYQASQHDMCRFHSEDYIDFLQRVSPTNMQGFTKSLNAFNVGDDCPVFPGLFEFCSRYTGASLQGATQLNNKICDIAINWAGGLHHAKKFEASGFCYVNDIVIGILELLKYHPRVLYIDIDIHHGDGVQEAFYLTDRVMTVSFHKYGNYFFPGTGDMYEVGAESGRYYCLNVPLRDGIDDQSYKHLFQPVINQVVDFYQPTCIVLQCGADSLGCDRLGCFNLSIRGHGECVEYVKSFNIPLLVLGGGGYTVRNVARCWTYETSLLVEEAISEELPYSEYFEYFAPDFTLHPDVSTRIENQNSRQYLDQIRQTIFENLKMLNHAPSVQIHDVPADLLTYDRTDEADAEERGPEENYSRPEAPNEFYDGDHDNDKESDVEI
T1 sequence (Q9Y618 395-489 partner limits assumed): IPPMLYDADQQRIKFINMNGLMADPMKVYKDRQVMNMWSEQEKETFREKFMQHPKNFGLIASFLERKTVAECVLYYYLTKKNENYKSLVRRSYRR
The assay is described as follows: HDAC enzyme inhibition assay (ZMAL substrate), HDAC3. The format is biochemical. The settings on record: n = 2, mean ± SD. The procedure:
as §1, §2

Assay [3] addresses T2, HDAC1 (Homo sapiens, UniProt Q13547). Put plainly: HDAC enzyme inhibition assay (ZMAL substrate), HDAC1. Format: biochemical. Also on record: purchased BPS Bioscience 50051. The settings on record: n = 2, mean ± SD. The procedure:
as §1, §2

For assay [4], the target named is T2, HDAC1. The assay is described as follows: HDAC1 degradation, western blot in MM.1S cells. Particulars: 25 μM, 24 h, immunoblot. Set-up: endogenous in cells; host or cells: MM.1S. The format is cell-based. As for the experimental part:
First, the multiple myeloma cell line MM.1S was treated with varying concentrations (1, 10, and 25 µM) of degraders 10a–d for 6 and 24 h, respectively. HDAC1 and HDAC6 were selected for investigation due to their critical roles in various diseases such as cancer. HDAC1 and HDAC6 protein levels were subsequently evaluated using western blot analysis. […] This limited efficacy could be due to insufficient incubation time of the compounds with MM.1S cells. […] All compounds still exerted no degradation of HDAC6 at different concentrations after 24 h of treatment. However, different from 10b–d, degrader 10a, which contains a hydroxamic acid as ZBG, achieved substantial degradation of HDAC1 with a maximal degradation (D max) value of 74% at 25 μM. Consequently, Compound 10a was selected for further biological evaluations based on the initial screening results.
The MM.1S was obtained from ATCC (Manassas, VA, USA). MM.1S cells were cultivated in RPMI 1640 medium supplemented with 10% FBS, 100 IU/mL penicillin, 0.1 mg/mL streptomycin, and 1 mM sodium pyruvate at 37°C in a 5% CO2 atmosphere.
(§3) The MM.1S cells (3 × 10^6 cells/mL) were seeded into cell culture flasks and, after 72 h, treated with the indicated concentration of compound or DMSO for the given time. Cell lysis was performed with Cell Extraction Buffer and the addition of Halt Protease Inhibitor Cocktail and phenylmethanesulfonyl fluoride. Protein content was determined by Pierce BCA Protein Assay Kit. Samples were denatured by Laemmli 2× Concentrate, and Precision Plus Protein Unstained Standard was used as a molecular weight marker in all cases. SDS‐PAGE was performed with 10% Mini‐PROTEAN TGX Stain‐Free Gel (Catalog# 458035, Bio‐Rad, Hercules, CA, USA) at 200 V for 50 min (Catalog# 458035, Bio‐Rad). Afterwards, proteins were transferred with the Trans‐Blot Turbo Transfer System to Immobilon‐FL PVDF membranes at 1.0 A for 30 min and incubated with 5% milk‐powder solution for 1 h at room temperature under slight agitation. […] The ChemiDoc XRS+ System was used for detection, and Image Lab Software 6.1 (Bio‐Rad, Hercules, CA, USA) for quantification.
For orientation: A western blot detects proteins with antibodies after separation by electrophoresis.

The subject of assay [5] is acetylated histone H3 (indicator of reduced HDAC1‐3 activity). The assay is described as follows: Cellular target engagement: immunoblot of acetylated histone H3. The format is cell-based. The settings on record: MM.1S cells, 10 µM, 24 h. The procedure: (§4) Immunoblot analysis of acetylated histone H3 (A) and α‐tubulin (B) in MM.1S cell lysates after treatment with the indicated compounds (10 µM) or vehicle (DMSO) for 24 h. Representative images from a total of n = 2 replicates.
as §3, with “agitation. Subsequently, the membranes were incubated with anti‐HDAC1 (Catalog# 5356S, Cell Signaling Technology, Denver, MA, USA), anti‐HDAC2 (Catalog# 9959S, Cell Signaling Technology, Denver, MA, USA), anti‐HDAC3 (Catalog# 85057S, Cell Signaling Technology, Denver, MA, USA), anti‐HDAC4 (Catalog# 7628S, Cell Signaling Technology, Denver, MA, USA), anti‐HDAC6 (Catalog# 7558S, Cell Signaling Technology, Denver, MA, USA), anti‐acetyl‐histone H3 (Catalog# 9677S, Cell Signaling Technology, Denver, MA, USA), anti‐acetyl‐α‐tubulin (Catalog# 5335, Cell Signaling Technology, Denver, MA, USA), or anti‐GAPDH (Catalog# T0004, Affinity Biosciences, Cincinnati, OH, USA) antibody solutions in 1:1000–1:20000 dilutions at room temperature under slight agitation for 1 h, then put membranes at 4°C for overnight.” for “agitation.”

Assay [6] concerns acetylated α‐tubulin (marker of decreased HDAC6 activity). The assay is described as follows: Cellular target engagement: immunoblot of acetylated α-tubulin. The format is cell-based. Particulars: MM.1S cells, 10 µM, 24 h. The procedure: as §4
as §3, with “agitation. Subsequently, the membranes were incubated with anti‐HDAC1 (Catalog# 5356S, Cell Signaling Technology, Denver, MA, USA), anti‐HDAC2 (Catalog# 9959S, Cell Signaling Technology, Denver, MA, USA), anti‐HDAC3 (Catalog# 85057S, Cell Signaling Technology, Denver, MA, USA), anti‐HDAC4 (Catalog# 7628S, Cell Signaling Technology, Denver, MA, USA), anti‐HDAC6 (Catalog# 7558S, Cell Signaling Technology, Denver, MA, USA), anti‐acetyl‐histone H3 (Catalog# 9677S, Cell Signaling Technology, Denver, MA, USA), anti‐acetyl‐α‐tubulin (Catalog# 5335, Cell Signaling Technology, Denver, MA, USA), or anti‐GAPDH (Catalog# T0004, Affinity Biosciences, Cincinnati, OH, USA) antibody solutions in 1:1000–1:20000 dilutions at room temperature under slight agitation for 1 h, then put membranes at 4°C for overnight.” for “agitation.”

T2 sequence (Q13547 whole entry): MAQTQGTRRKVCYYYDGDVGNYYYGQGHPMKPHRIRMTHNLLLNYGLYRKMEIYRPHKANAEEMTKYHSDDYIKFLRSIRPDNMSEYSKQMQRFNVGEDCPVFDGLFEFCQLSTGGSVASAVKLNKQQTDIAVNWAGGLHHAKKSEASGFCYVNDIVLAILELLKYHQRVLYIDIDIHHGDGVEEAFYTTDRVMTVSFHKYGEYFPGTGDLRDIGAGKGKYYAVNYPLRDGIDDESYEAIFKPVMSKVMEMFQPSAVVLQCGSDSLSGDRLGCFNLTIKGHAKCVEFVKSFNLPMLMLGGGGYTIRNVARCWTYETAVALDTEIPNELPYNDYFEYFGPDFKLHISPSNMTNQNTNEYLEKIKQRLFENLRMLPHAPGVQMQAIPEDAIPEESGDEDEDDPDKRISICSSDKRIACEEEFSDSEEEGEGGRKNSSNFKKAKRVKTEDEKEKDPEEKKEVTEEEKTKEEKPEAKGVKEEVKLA
Sequence of HDAC2 (Q92769 whole entry): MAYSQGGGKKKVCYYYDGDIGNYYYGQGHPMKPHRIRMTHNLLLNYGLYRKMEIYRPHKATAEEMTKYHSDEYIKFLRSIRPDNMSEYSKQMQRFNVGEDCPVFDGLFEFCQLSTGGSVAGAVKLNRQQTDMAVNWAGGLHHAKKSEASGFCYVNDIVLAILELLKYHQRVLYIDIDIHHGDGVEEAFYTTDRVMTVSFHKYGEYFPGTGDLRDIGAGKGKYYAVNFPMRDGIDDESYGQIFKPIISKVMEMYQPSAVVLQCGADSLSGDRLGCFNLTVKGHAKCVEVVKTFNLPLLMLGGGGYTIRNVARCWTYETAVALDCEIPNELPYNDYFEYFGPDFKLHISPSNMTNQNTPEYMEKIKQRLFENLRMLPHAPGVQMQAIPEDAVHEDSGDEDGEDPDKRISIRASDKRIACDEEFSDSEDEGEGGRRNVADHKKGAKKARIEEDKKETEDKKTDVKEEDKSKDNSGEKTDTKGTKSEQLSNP

What is called IC50 is the midpoint of a concentration-inhibition curve. Regarding `CCS(=O)(=O)N1CCN(C(=O)Cc2ccc(NC(=O)CCCCCCC(=O)NO)cc2)CC1` [10a‐nc, N ^1‐(4‐{2‐[4‐(Ethylsulfonyl)piperazin‐1‐yl]‐2‐Oxoethyl}phenyl)‐N ^8‐Hydroxyoctanediamide], the half-maximal inhibitory concentration (IC50) worked out at 0.423 ± 0.063 µM in assay [1], 0.323 ± 0.022 µM in assay [2] and 0.229 ± 0.004 µM in assay [3]. Moreover, the “HDAC1 protein levels” value in assay [4] is “did not affect HDAC1 levels”.
`C=CS(=O)(=O)N1CCNCC1` [Compound 8, 1‐(Vinylsulfonyl)piperazine, reference compound]: the “level of acetylated histone H3” value in assay [5] is given as “no effects”. In addition, the “level of acetylated α-tubulin” value in assay [6] is on record as “no effects”.
